Assays:
Zymoseptoria tritici = assay: Leaf blotch of wheat (SEPTTR) disease control on wheat seedlings; type: in vivo; set-up: key to SEPTTR 1DP, HV activity at 100 ppm (% control rating) / SEPTTR 3DC, HV activity at 100 ppm (% control rating) / SEPTTR disease control, 1DP / SEPTTR disease control, 3DC / SEPTTR 1DP disease control rating, HV activity / SEPTTR 3DC disease control rating, HV activity / SEPTTR 3DC, LV activity at 125.1 g/H (% Control rating) / SEPTTR 1DP, LV activity at 125.1 g/H (% Control rating) / SEPTTR 1DP disease control rating, LV activity at 125.1 g/H / SEPTTR 3DC disease control rating, LV activity at 125.1 g/H / SEPTTR 3DC disease control rating, HV activity at 100 ppm / SEPTTR 1DP disease control rating, HV activity at 100 ppm / HV activity at 100 ppm SEPTTR 3DC (disease control rating) / HV activity at 100 ppm SEPTTR 1DP (disease control rating) / LV activity at 125.1 g/H SEPTTR 1DP (disease control rating) / LV activity at 125.1 g/H SEPTTR 3DC (disease control rating): A: > 80; B: ≤ 80; C: Not Tested; D: No Activity Observed in the Reported Assay; settings: for SEPTTR 1DP disease control rating, LV activity at 125.1 g/H / SEPTTR 3DC disease control rating, LV activity at 125.1 g/H / SEPTTR 1DP, LV activity at 125.1 g/H (% Control rating) / SEPTTR 3DC, LV activity at 125.1 g/H (% Control rating): low volume application; for SEPTTR 1DP disease control rating, LV activity at 125.1 g/H / SEPTTR 1DP disease control rating, HV activity at 100 ppm: 1 day protectant; for SEPTTR 3DC disease control rating, LV activity at 125.1 g/H / SEPTTR 3DC disease control rating, HV activity at 100 ppm: 3 day curative; for SEPTTR 1DP, LV activity at 125.1 g/H (% Control rating) / SEPTTR 1DP disease control rating, HV activity: 1 Day Protectant; for SEPTTR 3DC, LV activity at 125.1 g/H (% Control rating) / SEPTTR 3DC disease control rating, HV activity: 3 Day Curative; for SEPTTR 1DP disease control rating, HV activity at 100 ppm / SEPTTR 3DC disease control rating, HV activity at 100 ppm: high volume application; for SEPTTR 1DP disease control rating, HV activity / SEPTTR 3DC disease control rating, HV activity: HV application at 100 ppm, wheat leaf blotch
Puccinia triticina = assay: Wheat brown rust (PUCCRT) disease control on wheat seedlings; type: in vivo; set-up: key to PUCCRT 3DC, HV activity at 100 ppm (% control rating) / PUCCRT disease control, 3DC / PUCCRT 1DP disease control rating, HV activity / PUCCRT 3DC disease control rating, HV activity / PUCCRT 3DC, LV activity at 125.1 g/H (% Control rating) / PUCCRT 1DP, LV activity at 125.1 g/H (% Control rating) / PUCCRT 3DC disease control rating, LV activity at 125.1 g/H / PUCCRT 1DP disease control rating, LV activity at 125.1 g/H / PUCCRT 3DC disease control rating, HV activity at 100 ppm / PUCCRT 1DP disease control rating, HV activity at 100 ppm / HV activity at 100 ppm PUCCRT 3DC (disease control rating) / LV activity at 125.1 g/H PUCCRT 1DP (disease control rating) / LV activity at 125.1 g/H PUCCRT 3DC (disease control rating): A: > 80; B: ≤ 80; C: Not Tested; D: No Activity Observed in the Reported Assay; settings: for PUCCRT 1DP disease control rating, LV activity at 125.1 g/H / PUCCRT 3DC disease control rating, LV activity at 125.1 g/H / PUCCRT 1DP, LV activity at 125.1 g/H (% Control rating) / PUCCRT 3DC, LV activity at 125.1 g/H (% Control rating): low volume application; for PUCCRT 1DP disease control rating, LV activity at 125.1 g/H / PUCCRT 1DP disease control rating, HV activity at 100 ppm: 1 day protectant; for PUCCRT 3DC disease control rating, LV activity at 125.1 g/H / PUCCRT 3DC disease control rating, HV activity at 100 ppm: 3 day curative; for PUCCRT 1DP, LV activity at 125.1 g/H (% Control rating) / PUCCRT 1DP disease control rating, HV activity: 1 Day Protectant; for PUCCRT 3DC, LV activity at 125.1 g/H (% Control rating) / PUCCRT 3DC disease control rating, HV activity: 3 Day Curative; for PUCCRT 1DP disease control rating, HV activity at 100 ppm / PUCCRT 3DC disease control rating, HV activity at 100 ppm: high volume application; for PUCCRT 1DP disease control rating, HV activity / PUCCRT 3DC disease control rating, HV activity: HV application at 100 ppm, wheat brown rust

COc1ccnc(C(=O)NC(C)C(=O)OC(C)C(Oc2ccc(Cl)cc2Cl)c2ccccc2)c1OC(=O)C(C)C (stereo not drawn) [Cmpd 868] was tested, and the “SEPTTR 1DP disease control rating, LV activity at 125.1 g/H” value (Zymoseptoria tritici) was “B (≤ 80)”, the “SEPTTR 3DC disease control rating, LV activity at 125.1 g/H” value (Zymoseptoria tritici) was “B (≤ 80)” and the “PUCCRT 1DP disease control rating, LV activity at 125.1 g/H” value (Puccinia triticina) was “B (≤ 80)”. The “PUCCRT 3DC disease control rating, LV activity at 125.1 g/H” value (Puccinia triticina) was “B (≤ 80)”.
CCC(CC)[C@@H](Oc1cc(F)cc(Cl)c1)[C@H](C)OC(=O)[C@@H](NC(=O)c1nccc(OC)c1OCOC(C)=O)C(C)C [Cmpd 651] was tested, and the “SEPTTR 1DP, LV activity at 125.1 g/H (% Control rating)” value (Zymoseptoria tritici) was “A (> 80)”, the “SEPTTR 3DC, LV activity at 125.1 g/H (% Control rating)” value (Zymoseptoria tritici) was “A (> 80)” and the “PUCCRT 1DP, LV activity at 125.1 g/H (% Control rating)” value (Puccinia triticina) was “A (> 80)”. The “PUCCRT 3DC, LV activity at 125.1 g/H (% Control rating)” value (Puccinia triticina) was “B (≤ 80)”.
With COc1ccnc(C(=O)NC(C)C(=O)OC(C)C(OC)c2ccccc2)c1O (stereo not drawn) [Cmpd 823] the “SEPTTR 1DP disease control rating, HV activity at 100 ppm” value (Zymoseptoria tritici) was “D”, the “SEPTTR 3DC disease control rating, HV activity at 100 ppm” value (Zymoseptoria tritici) was “B (≤ 80)” and the “PUCCRT 1DP disease control rating, HV activity at 100 ppm” value (Puccinia triticina) was “B (≤ 80)”. The “PUCCRT 3DC disease control rating, HV activity at 100 ppm” value (Puccinia triticina) was “A (> 80)”.
With COc1ccnc(C(=O)N[C@@H](C)C(=O)O[C@@H](C)COc2ccccc2)c1O [Cmpd 335] the “SEPTTR 1DP disease control rating, HV activity” value (Zymoseptoria tritici) was “B (≤ 80)”, the “SEPTTR 3DC disease control rating, HV activity” value (Zymoseptoria tritici) was “D” and the “PUCCRT 1DP disease control rating, HV activity” value (Puccinia triticina) was “A (> 80)”. For the same compound, the “PUCCRT 3DC disease control rating, HV activity” value (Puccinia triticina) was “A (> 80)”.
With CC[C@H](OC(=O)[C@H](C)NC(=O)c1nccc(OC)c1OCOC(C)=O)[C@H](Oc1ccccc1)C(C)C [Cmpd 877] the “SEPTTR 1DP disease control rating, LV activity at 125.1 g/H” value (Zymoseptoria tritici) was “B (≤ 80)”, the “SEPTTR 3DC disease control rating, LV activity at 125.1 g/H” value (Zymoseptoria tritici) was “B (≤ 80)” and the “PUCCRT 1DP disease control rating, LV activity at 125.1 g/H” value (Puccinia triticina) was “A (> 80)”. For the same compound, the “PUCCRT 3DC disease control rating, LV activity at 125.1 g/H” value (Puccinia triticina) was “A (> 80)”.
In the case of CCCOC[C@H](C)OC(=O)[C@H](C)NC(=O)c1nccc(OC)c1O [Cmpd 334], the “SEPTTR 1DP disease control rating, HV activity” value (Zymoseptoria tritici) is reported as “B (≤ 80)”, the “SEPTTR 3DC disease control rating, HV activity” value (Zymoseptoria tritici) is reported as “B (≤ 80)” and the “PUCCRT 1DP disease control rating, HV activity” value (Puccinia triticina) is reported as “D”. For the same compound, the “PUCCRT 3DC disease control rating, HV activity” value (Puccinia triticina) was “B (≤ 80)”.
With COc1ccnc(C(=O)N[C@@H](C)C(=O)O[C@@H](C)COCC2CC2)c1O [Cmpd 338] the “SEPTTR 1DP disease control rating, HV activity” value (Zymoseptoria tritici) was “B (≤ 80)”, the “SEPTTR 3DC disease control rating, HV activity” value (Zymoseptoria tritici) was “D” and the “PUCCRT 1DP disease control rating, HV activity” value (Puccinia triticina) was “B (≤ 80)”. The “PUCCRT 3DC disease control rating, HV activity” value (Puccinia triticina) was “D”.
In the case of CCC(CCC(C)C)C(OCC1CC1)C(C)OC(=O)C(C)NC(=O)c1nccc(OC)c1O (stereo not drawn) [Cmpd 318], the “SEPTTR 1DP disease control rating, HV activity” value (Zymoseptoria tritici) is reported as “D”, the “SEPTTR 3DC disease control rating, HV activity” value (Zymoseptoria tritici) is reported as “B (≤ 80)” and the “PUCCRT 1DP disease control rating, HV activity” value (Puccinia triticina) is reported as “D”. For the same compound, the “PUCCRT 3DC disease control rating, HV activity” value (Puccinia triticina) was “B (≤ 80)”.
CCCOC(c1ccccc1)C(C)OC(=O)C(C)NC(=O)c1nccc(OC)c1O (stereo not drawn) [Cmpd 821] was tested, and the “SEPTTR 1DP disease control rating, HV activity at 100 ppm” value (Zymoseptoria tritici) was “B (≤ 80)”, the “SEPTTR 3DC disease control rating, HV activity at 100 ppm” value (Zymoseptoria tritici) was “B (≤ 80)” and the “PUCCRT 1DP disease control rating, HV activity at 100 ppm” value (Puccinia triticina) was “A (> 80)”. The “PUCCRT 3DC disease control rating, HV activity at 100 ppm” value (Puccinia triticina) was “A (> 80)”.
With COc1ccnc(C(=O)NC(C)C(=O)OC(C)C(Oc2ccccc2)c2nccs2)c1OCOC(C)=O (mixture of isomers) [Cmpd 861] the “SEPTTR 1DP disease control rating, LV activity at 125.1 g/H” value (Zymoseptoria tritici) was “D”, the “SEPTTR 3DC disease control rating, LV activity at 125.1 g/H” value (Zymoseptoria tritici) was “B (≤ 80)” and the “PUCCRT 1DP disease control rating, LV activity at 125.1 g/H” value (Puccinia triticina) was “A (> 80)”. For the same compound, the “PUCCRT 3DC disease control rating, LV activity at 125.1 g/H” value (Puccinia triticina) was “A (> 80)”.
COc1ccnc(C(=O)N[C@@H](C)C(=O)O[C@@H](C)[C@H](Oc2ccc(Cl)cc2Cl)c2ccccc2)c1OC(C)=O [Cmpd 635] was tested, and the “SEPTTR 1DP, LV activity at 125.1 g/H (% Control rating)” value (Zymoseptoria tritici) was “A (> 80)”, the “SEPTTR 3DC, LV activity at 125.1 g/H (% Control rating)” value (Zymoseptoria tritici) was “A (> 80)” and the “PUCCRT 1DP, LV activity at 125.1 g/H (% Control rating)” value (Puccinia triticina) was “A (> 80)”. The “PUCCRT 3DC, LV activity at 125.1 g/H (% Control rating)” value (Puccinia triticina) was “B (≤ 80)”.
COc1ccnc(C(=O)N[C@@H](C)C(=O)O[C@@H](C)[C@@H](Oc2ccccc2)C(C)C)c1O [Cmpd 347] was tested, and the “SEPTTR 1DP disease control rating, HV activity” value (Zymoseptoria tritici) was “B (≤ 80)”, the “SEPTTR 3DC disease control rating, HV activity” value (Zymoseptoria tritici) was “B (≤ 80)” and the “PUCCRT 1DP disease control rating, HV activity” value (Puccinia triticina) was “B (≤ 80)”. For the same compound, the “PUCCRT 3DC disease control rating, HV activity” value (Puccinia triticina) was “A (> 80)”.

Source: patent publication US20180000085A1, “USE OF PICOLINAMIDE COMPOUNDS WITH FUNGICIDAL ACTIVITY” (DOW AGROSCIENCES LLC, priority 2014, published 2018)
